Results: publication PMC8000448, “Inhibitory Effects of Schisandra Lignans on Cytochrome P450s and Uridine 5′-Diphospho-Glucuronosyl Transferases in Human Liver Microsomes” (Pharmaceutics, 2021)
Where two headings read alike, the source gives them in different places.

Experiments:
CYP2C19 = CYP2C19 (Homo sapiens, UniProt P33261); experiment: CYP2C19 inhibition in HLMs (S-mephenytoin)
Description: (§2) Lignans were first dissolved in methanol. The final organic solvent concentration in the incubation media was ≤1.0% (v/v). The microsomal incubation was conducted using two cocktail sets containing non-interactive substrates: set A containing phenacetin, bupropion, amodiaquine, diclofenac, S-mephenytoin, and dextromethorphan as substrates for CYP1A2, CYP2B6, CYP2C8, CYP2C9, CYP2C19, and CYP2D6, respectively; and set B containing coumarin and chlorzoxazone as substrates for CYP2A6 and CYP2E1, and midazolam, nifedipine, and testosterone as substrates for CYP3A4 (Table 1). These substrates are known to be selective for each P450 isoforms. Incubation mixtures containing potassium phosphate buffer (0.1 M, pH 7.4), pooled HLMs (0.25 mg/mL), P450 probe substrate cocktails, and lignan (0~50 μM) were pre-incubated at 37 °C (5 min). Following pre-incubation, an NADPH generating system (1.3 mM NADP^+, 3.3 mM G6P, 1 unit/mL G6PDH, and 3.3 mM MgCl2) was added to initiate the reaction, and further incubated for 10 min. The reaction was quenched with 50 μL of cold acetonitrile containing internal standard (IS; 7 nM trimipramine). After centrifugation at 14,000 rpm (5 min at 4 °C), aliquots of supernatants were filtered through a 0.2 μm membrane filter and were measured by liquid chromatography-tandem mass spectrometry (LC-MS/MS). All microsomal incubations were performed in triplicate.

CYP2A6 = target: T1, CYP2A6 (Homo sapiens, UniProt P11509); experiment: CYP2A6 inhibition in HLMs (coumarin); type: in vitro ADME
T1 construct: pooled HLMs (0.25 mg/mL); tissue XenoTech H2630; host or cells: pooled human liver microsomes, mixed gender
T1 sequence (P11509 1-494): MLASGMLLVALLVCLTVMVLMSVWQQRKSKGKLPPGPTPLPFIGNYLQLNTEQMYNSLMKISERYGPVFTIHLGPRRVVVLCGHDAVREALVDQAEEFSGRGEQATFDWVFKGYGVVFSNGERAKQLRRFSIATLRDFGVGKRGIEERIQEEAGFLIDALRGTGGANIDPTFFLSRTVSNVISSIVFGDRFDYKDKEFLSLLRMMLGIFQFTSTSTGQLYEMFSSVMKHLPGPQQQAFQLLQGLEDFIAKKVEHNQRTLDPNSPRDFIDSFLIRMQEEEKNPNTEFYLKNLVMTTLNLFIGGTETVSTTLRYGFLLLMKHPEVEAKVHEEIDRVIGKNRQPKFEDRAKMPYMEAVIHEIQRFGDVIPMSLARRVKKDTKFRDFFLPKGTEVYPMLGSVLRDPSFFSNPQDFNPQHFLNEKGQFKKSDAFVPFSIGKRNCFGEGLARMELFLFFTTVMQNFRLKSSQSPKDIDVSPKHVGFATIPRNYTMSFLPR
Description: (§1) Lignans were first dissolved in methanol. […] All microsomal incubations were performed in triplicate.

CYP2C9 = CYP2C9 (Homo sapiens, UniProt P11712); experiment: CYP2C9 inhibition in HLMs (diclofenac)
Description: as §2

CYP2D6 = CYP2D6 (Homo sapiens, UniProt P10635); experiment: CYP2D6 inhibition in HLMs (dextromethorphan)
Description: as §2

CYP2B6 = target: T2, CYP2B6 (Homo sapiens, UniProt P20813); experiment: CYP2B6 inhibition in HLMs (bupropion); type: in vitro ADME
T2 construct: pooled HLMs (0.25 mg/mL); tissue XenoTech H2630; host or cells: pooled human liver microsomes, mixed gender
T2 sequence (P20813 1-491): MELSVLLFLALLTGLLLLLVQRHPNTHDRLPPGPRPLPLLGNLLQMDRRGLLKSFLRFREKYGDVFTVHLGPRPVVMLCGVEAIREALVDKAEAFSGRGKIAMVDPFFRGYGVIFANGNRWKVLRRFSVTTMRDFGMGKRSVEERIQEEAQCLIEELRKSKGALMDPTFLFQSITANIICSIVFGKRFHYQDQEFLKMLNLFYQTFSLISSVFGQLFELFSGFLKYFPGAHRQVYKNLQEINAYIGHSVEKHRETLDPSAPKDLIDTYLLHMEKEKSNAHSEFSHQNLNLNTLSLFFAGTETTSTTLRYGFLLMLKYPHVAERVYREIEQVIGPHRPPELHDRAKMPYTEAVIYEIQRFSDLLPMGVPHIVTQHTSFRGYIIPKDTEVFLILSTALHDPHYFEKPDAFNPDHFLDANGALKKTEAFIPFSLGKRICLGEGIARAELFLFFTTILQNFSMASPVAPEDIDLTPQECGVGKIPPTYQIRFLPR
Description: as §1

CYP3A = CYP3A (Homo sapiens, UniProt P08684); experiment: CYP3A inhibition in HLMs (midazolam, nifedipine, testosterone); conditions: pooled human liver microsomes; for IC50 at 10 min: HLMs;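 for all read-outs here: pooled HLMs at 0.25 mg/mL in phosphate buffer, inhibitor across 0–50 µM, 10 min reaction at 37 °C after preincubation, probe metabolite quantified by LC-MS/MS, triplicate incubations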
Description: as §2

UGT2B7 = target: T3, UGT2B7 (Homo sapiens, UniProt P16662); experiment: UGT2B7 inhibition in HLMs (naloxone); type: in vitro ADME; conditions: average in triplicate, read-out: IC50, UGT 2B6 (so in the source)
T3 construct: pooled HLMs (0.25 mg/mL); tissue XenoTech H2630; host or cells: pooled human liver microsomes, mixed gender
T3 sequence (P16662 24-529): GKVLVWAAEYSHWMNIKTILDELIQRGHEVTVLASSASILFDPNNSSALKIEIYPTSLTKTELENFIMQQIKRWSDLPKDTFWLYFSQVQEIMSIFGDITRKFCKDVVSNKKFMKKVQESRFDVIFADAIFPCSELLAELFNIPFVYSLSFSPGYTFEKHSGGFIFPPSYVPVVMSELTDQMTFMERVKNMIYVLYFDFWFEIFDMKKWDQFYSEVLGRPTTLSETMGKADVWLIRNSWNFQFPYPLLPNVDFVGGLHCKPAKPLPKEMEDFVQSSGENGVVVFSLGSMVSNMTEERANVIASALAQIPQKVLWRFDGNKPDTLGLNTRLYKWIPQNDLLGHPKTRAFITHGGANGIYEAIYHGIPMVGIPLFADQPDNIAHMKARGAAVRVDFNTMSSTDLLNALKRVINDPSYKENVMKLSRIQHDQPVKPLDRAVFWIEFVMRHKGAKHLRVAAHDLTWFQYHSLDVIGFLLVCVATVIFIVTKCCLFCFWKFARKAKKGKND
Description: The inhibitory potential of six lignans on six UGT activities was evaluated using the previously developed cocktail method with slight modifications. […] These substrates are known to be selective for each UGT isoforms.

CYP1A2 = target: T4, CYP1A2 (Homo sapiens, UniProt P05177); experiment: CYP1A2 inhibition in HLMs (phenacetin, cocktail, IC50 and IC50 shift); type: in vitro ADME
T4 construct: pooled HLMs (0.25 mg/mL); tissue XenoTech H2630; host or cells: pooled human liver microsomes, mixed gender
T4 sequence (P05177 1-516): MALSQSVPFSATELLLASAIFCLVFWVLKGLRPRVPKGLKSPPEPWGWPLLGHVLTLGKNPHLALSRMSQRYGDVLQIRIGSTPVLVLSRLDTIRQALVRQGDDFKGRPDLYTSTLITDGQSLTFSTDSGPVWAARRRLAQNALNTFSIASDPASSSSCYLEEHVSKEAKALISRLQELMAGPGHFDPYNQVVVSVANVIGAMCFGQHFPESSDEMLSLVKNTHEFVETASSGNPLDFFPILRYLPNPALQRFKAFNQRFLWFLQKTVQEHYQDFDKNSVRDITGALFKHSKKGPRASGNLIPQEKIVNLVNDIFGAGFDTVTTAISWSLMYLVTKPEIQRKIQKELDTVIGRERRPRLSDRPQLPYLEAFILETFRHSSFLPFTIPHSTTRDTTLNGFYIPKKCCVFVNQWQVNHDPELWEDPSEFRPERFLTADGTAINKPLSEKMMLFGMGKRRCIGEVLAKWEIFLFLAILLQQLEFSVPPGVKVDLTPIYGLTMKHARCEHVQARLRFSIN
Description: as §1

[1] = IC50 TDI, 30 min pre-incubation with NADPH generating system
[2] = 30 min pre-incubation with NADPH generating system, read-out: IC50 TDI, CYP2A6
[3] = reversible inhibition, read-out: IC50 RI, CYP2A6
[4] = 30 min pre-incubation with NADPH generating system, read-out: IC50 TDI, CYP2B6
[5] = reversible inhibition, read-out: IC50 RI, CYP2B6
[6] = pH 7.4, IC50, CYP3A activity (across probe substrates), reversible inhibition, probe substrate not singled out
[7] = pH 7.4, probe midazolam (cocktail set B), IC50 RI, CYP3A (midazolam), midazolam, reversible inhibition
[8] = pH 7.4, probe midazolam (cocktail set B), IC50 TDI, CYP3A (midazolam), midazolam, 30 min pre-incubation with NADPH generating system
[9] = pH 7.4, probe nifedipine (cocktail set B), IC50 RI, CYP3A (nifedipine), nifedipine, reversible inhibition
[10] = pH 7.4, probe nifedipine (cocktail set B), IC50 TDI, CYP3A (nifedipine), nifedipine, 30 min pre-incubation with NADPH generating system
[11] = pH 7.4, probe testosterone (cocktail set B), IC50 RI, CYP3A (testosterone), testosterone, reversible inhibition
[12] = pH 7.4, probe testosterone (cocktail set B), IC50 TDI, CYP3A (testosterone), testosterone, 30 min pre-incubation with NADPH generating system
[13] = HLMs, 30 min pre-incubation with NADPH generating system, read-out: IC50 TDI, CYP1A2
[14] = HLMs, reversible inhibition, no 30 min NADPH pre-incubation, read-out: IC50 RI, CYP1A2

Chain of CYP2C19 (P33261 whole entry): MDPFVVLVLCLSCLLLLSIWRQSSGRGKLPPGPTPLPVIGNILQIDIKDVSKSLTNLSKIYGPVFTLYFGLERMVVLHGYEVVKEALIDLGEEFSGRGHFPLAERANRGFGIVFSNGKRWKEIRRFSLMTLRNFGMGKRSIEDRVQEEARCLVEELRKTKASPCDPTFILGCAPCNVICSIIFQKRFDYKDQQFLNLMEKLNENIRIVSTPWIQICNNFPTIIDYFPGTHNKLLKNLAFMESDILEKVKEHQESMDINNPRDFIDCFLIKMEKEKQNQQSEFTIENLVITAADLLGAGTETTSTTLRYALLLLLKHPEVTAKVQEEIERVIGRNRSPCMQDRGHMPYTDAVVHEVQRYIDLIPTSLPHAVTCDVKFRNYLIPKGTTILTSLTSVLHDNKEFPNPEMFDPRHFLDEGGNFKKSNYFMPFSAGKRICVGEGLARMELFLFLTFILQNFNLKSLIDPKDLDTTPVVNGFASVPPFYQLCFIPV
Chain of CYP2C9 (P11712 whole entry): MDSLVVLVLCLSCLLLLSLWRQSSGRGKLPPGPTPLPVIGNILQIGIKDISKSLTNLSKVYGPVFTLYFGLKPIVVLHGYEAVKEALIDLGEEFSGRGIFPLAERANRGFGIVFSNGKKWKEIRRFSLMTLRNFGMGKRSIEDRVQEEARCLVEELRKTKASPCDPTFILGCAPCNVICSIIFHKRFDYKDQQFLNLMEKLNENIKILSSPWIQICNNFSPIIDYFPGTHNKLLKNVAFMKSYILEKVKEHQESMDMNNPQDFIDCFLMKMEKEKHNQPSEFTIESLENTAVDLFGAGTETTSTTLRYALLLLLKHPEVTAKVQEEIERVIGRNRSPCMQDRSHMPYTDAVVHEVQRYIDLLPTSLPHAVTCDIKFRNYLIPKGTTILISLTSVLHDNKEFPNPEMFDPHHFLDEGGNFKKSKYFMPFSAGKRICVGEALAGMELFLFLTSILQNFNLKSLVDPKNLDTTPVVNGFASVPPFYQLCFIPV
Chain of CYP2D6 (P10635 whole entry): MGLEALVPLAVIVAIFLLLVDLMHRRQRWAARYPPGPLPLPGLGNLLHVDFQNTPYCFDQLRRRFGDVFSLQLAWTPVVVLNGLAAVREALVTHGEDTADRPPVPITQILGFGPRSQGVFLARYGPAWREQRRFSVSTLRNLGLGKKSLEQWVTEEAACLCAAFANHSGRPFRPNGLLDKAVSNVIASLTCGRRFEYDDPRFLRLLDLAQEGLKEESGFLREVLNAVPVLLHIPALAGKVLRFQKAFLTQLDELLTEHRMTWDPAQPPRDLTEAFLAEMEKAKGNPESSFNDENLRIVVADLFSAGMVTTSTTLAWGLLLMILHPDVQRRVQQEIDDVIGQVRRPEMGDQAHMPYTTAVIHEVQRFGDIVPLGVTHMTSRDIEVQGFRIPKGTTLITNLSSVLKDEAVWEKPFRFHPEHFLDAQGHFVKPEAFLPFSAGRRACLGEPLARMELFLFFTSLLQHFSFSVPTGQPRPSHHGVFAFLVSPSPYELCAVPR
Chain of CYP3A (P08684 2-503): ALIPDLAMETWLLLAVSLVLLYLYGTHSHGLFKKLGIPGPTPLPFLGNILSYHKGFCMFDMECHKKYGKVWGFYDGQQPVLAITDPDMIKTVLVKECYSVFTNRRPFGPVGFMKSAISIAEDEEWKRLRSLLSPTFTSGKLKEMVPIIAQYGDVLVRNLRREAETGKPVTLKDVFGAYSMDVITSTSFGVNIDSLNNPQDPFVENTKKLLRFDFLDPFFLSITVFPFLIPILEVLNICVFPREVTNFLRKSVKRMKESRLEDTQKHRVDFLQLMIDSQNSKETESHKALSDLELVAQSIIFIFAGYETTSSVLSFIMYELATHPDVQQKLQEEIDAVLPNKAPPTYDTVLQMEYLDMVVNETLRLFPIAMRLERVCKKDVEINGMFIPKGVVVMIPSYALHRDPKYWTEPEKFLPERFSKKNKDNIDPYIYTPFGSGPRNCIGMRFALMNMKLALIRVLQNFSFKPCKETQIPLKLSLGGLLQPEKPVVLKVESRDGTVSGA

With `COc1cc2c(c(OC)c1OC)-c1c(cc3c(c1OC)OCO3)C[C@H](C)[C@](C)(O)[C@H]2OC(=O)c1ccccc1` [Gomisin C, gomisin C] the IC50 (CYP2C19; IC50 RI, reversible inhibition) was 16.3 µM, the IC50 (CYP2C19; [1]) was 20.4 µM and the IC50 (CYP2A6; [2]) was over 50 µM. The IC50 (CYP2A6; [3]) was over 50 µM, the IC50 (CYP2C9; IC50 RI, reversible inhibition) was over 50 µM and the IC50 (CYP2C9; [1]) was over 50 µM. It also gave an IC50 (CYP2D6; IC50 RI, reversible inhibition) of over 50 µM, an IC50 (CYP2D6; [1]) of over 50 µM and an IC50 (CYP2B6; [4]) of over 50 µM. The IC50 (CYP2B6; [5]) was 33.1 µM, the IC50 at 10 min (CYP3A; [6]) was 0.19 to 0.3 µM and the IC50 at 10 min (CYP3A; [7]) was 0.3 µM. The IC50 at 10 min (CYP3A; [8]) was 0.1 µM, the IC50 at 10 min (CYP3A; [9]) was 0.26 µM and the IC50 at 10 min (CYP3A; [10]) was 0.09 µM. It also gave an IC50 at 10 min (CYP3A; [11]) of 0.19 to 0.28 µM, an IC50 at 10 min (CYP3A; [12]) of 0.09 µM and an IC50 (UGT2B7) of over 50 µM. The IC50 (CYP1A2; [13]) was over 50 µM and the IC50 (CYP1A2; [14]) was over 50 µM.

For `COc1cc2c(c(OC)c1OC)-c1c(cc(OC)c(OC)c1OC)C[C@](C)(O)[C@@H](C)C2` [Schisandrin, schisandrin], the IC50 (CYP2C19; IC50 RI, reversible inhibition) was 5.3 µM, the IC50 (CYP2C19; [1]) was 46.1 µM and the IC50 (CYP2A6; [2]) was over 50 µM. The IC50 (CYP2A6; [3]) was 40.9 µM, the IC50 (CYP2C9; IC50 RI, reversible inhibition) was 43 µM and the IC50 (CYP2C9; [1]) was over 50 µM. The IC50 (CYP2D6; IC50 RI, reversible inhibition) was 40.2 µM, the IC50 (CYP2D6; [1]) was over 50 µM and the IC50 (CYP2B6; [4]) was over 50 µM. It also gave an IC50 (CYP2B6; [5]) of 14.7 µM, an IC50 at 10 min (CYP3A; [6]) of at most 16 µM and an IC50 at 10 min (CYP3A; [7]) of 10.5 µM. The IC50 at 10 min (CYP3A; [8]) was 35 µM, the IC50 at 10 min (CYP3A; [9]) was 16 µM and the IC50 at 10 min (CYP3A; [10]) was 43.3 µM. It also gave an IC50 at 10 min (CYP3A; [11]) of 5.8 µM, an IC50 at 10 min (CYP3A; [12]) of 20.6 µM and an IC50 (UGT2B7) of over 50 µM. The IC50 (CYP1A2; IC50 RI, CYP1A2, HLMs, reversible inhibition, no 30 min NADPH pre-incubation) was 4 µM and the IC50 (CYP1A2; IC50 TDI, CYP1A2, HLMs, 30 min pre-incubation with NADPH generating system) was over 50 µM.

`COc1cc2c(c(OC)c1OC)-c1c(cc3c(c1OC)OCO3)C[C@H](C)[C@H](C)C2` [Gomisin N, gomisin N] was tested, and the IC50 (CYP2C19; IC50 RI, reversible inhibition) was 10.4 µM, the IC50 (CYP2C19; [1]) was 3.5 µM and the IC50 (CYP2A6; [2]) was over 50 µM. For the same compound, the IC50 (CYP2A6; [3]) was 38.2 µM, the IC50 (CYP2C9; IC50 RI, reversible inhibition) was 36.2 µM and the IC50 (CYP2C9; [1]) was 10.9 µM. The IC50 (CYP2D6; IC50 RI, reversible inhibition) was 42 µM, the IC50 (CYP2D6; [1]) was over 50 µM and the IC50 (CYP2B6; [4]) was over 50 µM. It also gave an IC50 (CYP2B6; [5]) of 38.3 µM, an IC50 at 10 min (CYP3A; [6]) of 1.3 to 4.5 µM and an IC50 shift at 10 min (CYP3A; pH 7.4, probe midazolam (cocktail set B)) of 2.7. The IC50 at 10 min (CYP3A; [7]) was 4.5 µM, the IC50 at 10 min (CYP3A; [8]) was 1.7 µM and the IC50 shift at 10 min (CYP3A; pH 7.4, probe nifedipine (cocktail set B)) was 2.4. The IC50 at 10 min (CYP3A; [9]) was 1.4 µM, the IC50 at 10 min (CYP3A; [10]) was 0.61 µM and the IC50 shift at 10 min (CYP3A; pH 7.4, probe testosterone (cocktail set B)) was 2.4. For the same compound, the IC50 at 10 min (CYP3A; [11]) was 1.3 µM, the IC50 at 10 min (CYP3A; [12]) was 0.55 µM and the IC50 (UGT2B7) was over 50 µM. For the same compound, the IC50 (CYP1A2; [13]) was over 50 µM and the IC50 (CYP1A2; [14]) was over 50 µM.

`COc1c2c(cc3c1-c1c(cc4c(c1OC)OCO4)C[C@H](C)[C@H](C)C3)OCO2` [Wuweizisu C, wuweizisu C] showed an IC50 (CYP2C19; IC50 RI, reversible inhibition) of 2.7 µM, an IC50 (CYP2C19; [1]) of 1.5 µM and an IC50 (CYP2A6; [2]) of over 50 µM. It also gave an IC50 (CYP2A6; [3]) of over 50 µM, an IC50 (CYP2C9; IC50 RI, reversible inhibition) of 8.9 µM and an IC50 (CYP2C9; [1]) of 3.6 µM. The IC50 (CYP2D6; IC50 RI, reversible inhibition) was 20.3 µM, the IC50 (CYP2D6; [1]) was 28.2 µM and the IC50 (CYP2B6; [4]) was 1.4 µM. The IC50 (CYP2B6; [5]) was 2.9 µM, the IC50 at 10 min (CYP3A; [7]) was 25.9 µM and the IC50 at 10 min (CYP3A; [8]) was 2.5 µM. It also gave an IC50 at 10 min (CYP3A; [9]) of 5.6 µM, an IC50 at 10 min (CYP3A; [11]) of 3.6 µM and an IC50 (UGT2B7) of over 50 µM. For the same compound, the IC50 (CYP1A2; [13]) was 22.4 µM and the IC50 (CYP1A2; [14]) was 25.6 µM.
